How the values were obtained:
[1] = molecular target: T1, AP2-associated protein kinase 1 (Homo sapiens, UniProt Q2M2I8); assay: Inhibition of bacterially expressed GST-Xa-tagged human AAK1 using 5-FAM-labelled Aha-KEEQSQITSQVTGQIGWR-NH2 peptide as substrate incubated for 3 hrs in presence of ATP by electrophoretic analysis
[2] = Metabolic stability in mouse liver microsomes assessed as parent compound remaining at 0.5 uM incubated for 10 mins in presence of NADPH by LC-MS/MS analysis; assay type: ADME, Microsome; settings: liver microsomes, read-out: Stability
Cytochrome P450 3A4 = Cytochrome P450 3A4 (Homo sapiens, UniProt P08684); assay: Inhibition of CYP3A4 (unknown origin) incubated for 10 mins in presence of NADPH by LC-MS/MS analysis; assay type: ADME
[3] = Metabolic stability in rat liver microsomes assessed as parent compound remaining at 0.5 uM incubated for 10 mins in presence of NADPH by LC-MS/MS analysis; assay type: ADME, Microsome; settings: read-out: Stability
[4] = molecular target: AP2-associated protein kinase 1 (Mus musculus, UniProt Q3UHJ0); assay: Displacement of 3H-LP-927443 from AAK1 in C57BL6 mouse brain homogenate assessed as inhibition constant incubated for 1 hr by liquid scintillation counter analysis; assay type: tissue-based
[5] = Metabolic stability in human liver microsomes assessed as parent compound remaining at 0.5 uM incubated for 10 mins in presence of NADPH by LC-MS/MS analysis; assay type: ADME, Microsome; settings: read-out: Stability
[6] = molecular target: T1, AP2-associated protein kinase 1; assay: Inhibition of full length human AAK1 expressed in HEK293F cells assessed as suppression of AP2 phosphorylation measured after 3 hrs by Western blot analysis based cellular assay; assay type: cell-based
[7] = Ratio of drug concentration in spinal cord to plasma in STZ-induced diabetic peripheral neuropathic mechanical allodynia in overnight fasted Sprague-Dawley rat at 1 mg/kg, po measured at 5.75 hrs post dose; assay type: ADME, organism-based
[8] = Drug concentration in STZ-induced diabetic peripheral neuropathic mechanical allodynia in overnight fasted Sprague-Dawley rat spinal cord at 1 mg/kg, po measured at 5.75 hrs post dose; assay type: ADME, organism-based; settings: read-out: Ct
[9] = Plasma concentration in STZ-induced diabetic peripheral neuropathic mechanical allodynia in overnight fasted Sprague-Dawley rat at 1 mg/kg, po measured at 5.75 hrs post dose; assay type: ADME, organism-based
[10] = Efflux ratio of permeability in human Caco-2 cells; assay type: ADME, cell-based
Rattus norvegicus [11] = assay: Analgesic activity in STZ-induced diabetic peripheral neuropathic mechanical allodynia in overnight fasted Sprague-Dawley rat assessed as reduction in pain response by measuring paw withdrawal latency at 1 mg/kg, po measured after 5 hrs by Hargreaves test relative to control; assay type: functional; parameters: scale not given: the % may be the effect or the level left
[12] = Brain concentration in CCI induced thermal hyperalgesia in Sprague-Dawley rat at 1 mg/kg, po measured at 5.5 hrs post dose; assay type: ADME, organism-based; settings: read-out: Ct
[13] = Brain concentration in STZ-induced diabetic peripheral neuropathic mechanical allodynia in overnight fasted Sprague-Dawley rat at 1 mg/kg, po measured at 5.5 hrs post dose; assay type: ADME, organism-based; settings: read-out: Ct
[14] = Drug concentration in STZ-induced diabetic peripheral neuropathic mechanical allodynia in overnight fasted Sprague-Dawley rat spinal cord at 1 mg/kg, po measured after 5.5 hrs; assay type: ADME, organism-based; settings: read-out: Ct
[15] = Plasma concentration in CCI induced thermal hyperalgesia in Sprague-Dawley rat at 1 mg/kg, po measured at 5.5 hrs post dose; assay type: ADME, organism-based
Rattus norvegicus [16] = assay: Analgesic activity in CCI induced thermal hyperalgesia in Sprague-Dawley rat assessed as reduction in thermal hyperalgesia by measuring paw withdrawal latency at 1 mg/kg, po measured after 5 hrs by Hargreaves test relative to control; assay type: functional; parameters: scale not given: the % may be the effect or the level left
[17] = Ratio of drug concentration in spinal cord to plasma in CCI induced thermal hyperalgesia in Sprague-Dawley rat at 1 mg/kg, po measured at 5.5 hrs post dose; assay type: ADME, organism-based
[18] = Ratio of drug concentration in brain to plasma in STZ-induced diabetic peripheral neuropathic mechanical allodynia in overnight fasted Sprague-Dawley rat at 1 mg/kg, po measured at 5.5 hrs post dose; assay type: ADME, organism-based
[19] = Drug concentration in CCI induced thermal hyperalgesia in Sprague-Dawley rat spinal cord at 1 mg/kg, po measured after 5.5 hrs; assay type: ADME, organism-based; settings: read-out: Ct
[20] = Ratio of drug concentration in brain to plasma in CCI induced thermal hyperalgesia in Sprague-Dawley rat at 1 mg/kg, po measured at 5.5 hrs post dose; assay type: ADME, organism-based
[21] = Plasma concentration in STZ-induced diabetic peripheral neuropathic mechanical allodynia in overnight fasted Sprague-Dawley rat at 1 mg/kg, po measured at 5.5 hrs post dose; assay type: ADME, organism-based
[22] = Ratio of drug concentration in brain to plasma in Sprague-Dawley rat at 3 mg/kg, po measured at 2 hrs post dose; assay type: ADME, organism-based
[23] = Ratio of drug concentration in spinal cord to plasma in STZ-induced diabetic peripheral neuropathic mechanical allodynia in overnight fasted Sprague-Dawley rat at 1 mg/kg, po measured at 5.5 hrs post dose; assay type: ADME, organism-based

T1 sequence (Q2M2I8 whole entry): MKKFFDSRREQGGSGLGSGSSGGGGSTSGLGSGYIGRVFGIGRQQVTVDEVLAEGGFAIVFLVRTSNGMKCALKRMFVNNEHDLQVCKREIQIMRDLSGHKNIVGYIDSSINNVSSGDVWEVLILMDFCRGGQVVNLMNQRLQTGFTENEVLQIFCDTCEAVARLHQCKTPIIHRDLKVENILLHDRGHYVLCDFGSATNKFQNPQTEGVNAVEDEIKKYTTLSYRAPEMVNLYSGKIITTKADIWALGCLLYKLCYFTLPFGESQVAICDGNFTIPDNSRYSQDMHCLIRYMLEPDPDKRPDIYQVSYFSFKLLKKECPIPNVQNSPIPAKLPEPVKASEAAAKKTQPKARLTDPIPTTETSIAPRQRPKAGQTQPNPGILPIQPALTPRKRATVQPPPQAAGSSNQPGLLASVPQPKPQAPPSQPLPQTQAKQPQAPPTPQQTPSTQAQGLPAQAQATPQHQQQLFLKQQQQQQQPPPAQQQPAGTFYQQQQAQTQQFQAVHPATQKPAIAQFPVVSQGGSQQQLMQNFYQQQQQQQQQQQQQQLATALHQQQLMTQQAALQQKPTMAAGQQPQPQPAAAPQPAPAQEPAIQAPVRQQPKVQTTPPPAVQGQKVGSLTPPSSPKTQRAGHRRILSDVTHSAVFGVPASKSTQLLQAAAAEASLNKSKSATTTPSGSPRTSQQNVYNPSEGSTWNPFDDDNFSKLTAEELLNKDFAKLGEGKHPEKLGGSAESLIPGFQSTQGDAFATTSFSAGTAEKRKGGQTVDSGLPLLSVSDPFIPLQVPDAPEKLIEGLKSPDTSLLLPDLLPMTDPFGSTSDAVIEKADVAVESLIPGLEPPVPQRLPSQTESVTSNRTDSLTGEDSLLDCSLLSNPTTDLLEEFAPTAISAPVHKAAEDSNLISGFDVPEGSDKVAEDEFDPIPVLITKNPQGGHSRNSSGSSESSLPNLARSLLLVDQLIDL
AP2-associated protein kinase 1 (Mus musculus, UniProt Q3UHJ0), sequence (Q3UHJ0 whole entry): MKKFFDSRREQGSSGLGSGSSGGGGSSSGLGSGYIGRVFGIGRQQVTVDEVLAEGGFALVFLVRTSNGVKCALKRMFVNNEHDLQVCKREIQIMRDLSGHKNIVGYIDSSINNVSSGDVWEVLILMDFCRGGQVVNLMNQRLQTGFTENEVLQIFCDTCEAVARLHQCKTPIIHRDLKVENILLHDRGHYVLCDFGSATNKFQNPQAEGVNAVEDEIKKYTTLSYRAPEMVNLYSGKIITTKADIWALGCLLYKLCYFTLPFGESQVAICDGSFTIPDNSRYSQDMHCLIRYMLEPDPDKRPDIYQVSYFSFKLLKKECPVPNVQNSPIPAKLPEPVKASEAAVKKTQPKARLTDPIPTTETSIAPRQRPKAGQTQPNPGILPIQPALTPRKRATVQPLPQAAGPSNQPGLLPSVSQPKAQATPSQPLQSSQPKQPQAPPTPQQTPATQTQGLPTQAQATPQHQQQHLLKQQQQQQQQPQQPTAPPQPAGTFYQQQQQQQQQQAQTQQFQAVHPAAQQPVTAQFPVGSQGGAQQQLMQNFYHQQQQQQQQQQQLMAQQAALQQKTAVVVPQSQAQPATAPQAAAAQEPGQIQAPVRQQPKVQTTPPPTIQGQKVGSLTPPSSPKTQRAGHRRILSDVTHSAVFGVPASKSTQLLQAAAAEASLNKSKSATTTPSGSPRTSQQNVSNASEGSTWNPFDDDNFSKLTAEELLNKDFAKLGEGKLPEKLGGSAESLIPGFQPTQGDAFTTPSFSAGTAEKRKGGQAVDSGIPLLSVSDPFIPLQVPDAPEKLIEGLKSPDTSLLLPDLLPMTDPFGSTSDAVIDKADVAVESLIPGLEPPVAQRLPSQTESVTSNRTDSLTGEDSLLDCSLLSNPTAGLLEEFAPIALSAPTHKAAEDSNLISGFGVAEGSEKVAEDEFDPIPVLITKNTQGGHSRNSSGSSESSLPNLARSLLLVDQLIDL
Cytochrome P450 3A4, sequence (P08684 whole entry): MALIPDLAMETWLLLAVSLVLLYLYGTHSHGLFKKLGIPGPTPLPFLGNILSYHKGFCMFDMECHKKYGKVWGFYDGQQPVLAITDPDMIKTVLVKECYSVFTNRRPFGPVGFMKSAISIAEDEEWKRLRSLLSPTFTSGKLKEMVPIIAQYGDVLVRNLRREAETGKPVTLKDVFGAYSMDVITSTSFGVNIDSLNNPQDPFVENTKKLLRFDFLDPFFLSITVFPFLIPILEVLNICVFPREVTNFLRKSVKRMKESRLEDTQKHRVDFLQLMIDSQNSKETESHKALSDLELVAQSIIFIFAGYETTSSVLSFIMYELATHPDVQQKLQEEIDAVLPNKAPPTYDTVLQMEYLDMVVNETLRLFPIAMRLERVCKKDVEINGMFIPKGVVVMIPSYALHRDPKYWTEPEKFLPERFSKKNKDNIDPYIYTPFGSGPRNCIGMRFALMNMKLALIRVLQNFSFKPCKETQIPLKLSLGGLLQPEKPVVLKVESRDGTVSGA

SMILES	IC50 [1]	remaining at 10 min, 0.5 µM [2]	IC50 (Cytochrome P450 3A4)	remaining at 10 min, 0.5 µM [3]	Ki [4]	remaining at 10 min, 0.5 µM [5]	IC50 [6]	other results
Cc1cc(-c2ccnc(C(F)F)c2)ncc1OC[C@@](C)(N)CC(C)C	1.4 nM	80%	> 20000 nM	76%	0.3 nM	83%	12 nM	–
CC(=O)Nc1cc(-c2cc(F)c(OC[C@@H](N)CC(C)C)cc2F)ccn1	1.3 nM	70%	7000 nM	90%	0.6 nM	78%	6.7 nM	–
CC(=O)Nc1cc(-c2ccc(OC[C@@](C)(N)CC(C)C)c(F)c2)ccn1	0.8 nM	70%	> 20000 nM	92%	0.24 nM	91%	3.7 nM	–
CC(C)C[C@](C)(N)COc1ccc(-c2ccnc(C(F)F)c2)nc1C(F)F [PILAVAPADIN]	–	–	–	–	–	–	–	Kp at 5.75 h [7]: 2.9; concentration at 5.75 h [8]: 245 nM; concentration at 5.75 h [9]: 84 nM
COc1cc(-c2ccnc(NC(C)=O)c2)ccc1OC[C@@H](N)CC(C)C	–	58%	6900 nM	92%	0.96 nM	96%	3.8 nM	efflux ratio [10]: 4.2
COC(=O)Nc1cc(-c2ccc(OC[C@@](C)(N)CC(C)C)c(C(F)F)c2)ccn1	0.5 nM	69%	> 20000 nM	86%	0.04 nM	88%	0.6 nM	–
CC(=O)Nc1cc(-c2ccc(OC[C@@H](N)CC(C)C)c(F)c2)ccn1	2.6 nM	79%	8900 nM	80%	0.52 nM	90%	1.6 nM	Activity (Rattus norvegicus [11]): 65%; concentration at 5.5 h [12]: 320 nM; concentration at 5.5 h [13]: 190 nM; concentration at 5.5 h [14]: 150 nM; concentration at 5.5 h [15]: 270 nM; Activity (Rattus norvegicus [16]): 56%; Kp at 5.5 h [17]: 1; Kp at 5.5 h [18]: 1; concentration at 5.5 h [19]: 270 nM; Kp at 5.5 h [20]: 1.2; concentration at 5.5 h [21]: 190 nM; Kp at 2 h [22]: 1.5; Kp at 5.5 h [23]: 0.8
CC(=O)Nc1cc(-c2ccc(OC[C@@H](N)CC(C)C)c(OC(F)(F)F)c2)ccn1	0.5 nM	35%	230 nM	80%	0.04 nM	91%	0.45 nM	–
